Source: ChEMBL document CHEMBL1201862, “PubChem BioAssay data set” (2004)
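In this assay, cells in 96-well plates receive the compound at five concentrations for 48 hours. Endpoints are linearly interpolated between the surrounding concentrations. GI50 marks 50% less growth.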 Calls of active or inactive are those of the source. No stated cut-off is given here; in the data, active = GI50 up to about 1.1 µM and inactive = higher.

Columns and labels:
Assay in all cases: NCI-60 cell line screen, 48 h
[1] = tested on: SW-620
[2] = tested on: HCT-116
[3] = tested on: ACHN
[4] = tested on: SK-MEL-2
[5] = tested on: HL-60
[6] = tested on: KM12
[7] = tested on: SF-539
[8] = tested on: NCI-H460
[9] = tested on: UO-31
[10] = tested on: EKVX
[11] = tested on: HOP-62
[12] = tested on: TK-10
[13] = tested on: RPMI-8226
[14] = tested on: M14
[15] = tested on: A498
[16] = tested on: CAKI-1

| SMILES | GI50 [1] | GI50 [2] | GI50 [3] | GI50 [4] | GI50 [5] | GI50 [6] | GI50 [7] | GI50 [8] | GI50 [9] | GI50 [10] | GI50 [11] | GI50 [12] | GI50 [13] | GI50 [14] | GI50 [15] | GI50 [16] |
| --- | --- | --- | --- | --- | --- | --- | --- | --- | --- | --- | --- | --- | --- | --- | --- | --- |
| CCCOP1(=O)C=C(C)C(Cl)=C(C)C1 (centres undefined) | 17.1 µM (inactive) | 18 µM (inactive) | 21.4 µM (inactive) | 6.11 µM (inactive) | 22.3 µM (inactive) | 19.1 µM (inactive) | 25.7 µM (inactive) | 31.2 µM (inactive) | 45.3 µM (inactive) | 74.3 µM (inactive) | 42.4 µM (inactive) | 23.1 µM (inactive) | 12 µM (inactive) | 15.3 µM (inactive) | – | – |
| O=c1cc(CO)oc2c3c(cc(O)c12)OCC(COC1OC(CO)C(O)C(O)C1O)=CC3 (centres undefined) | > 100 µM (inactive) | > 100 µM (inactive) | > 100 µM (inactive) | > 100 µM (inactive) | > 100 µM (inactive) | > 100 µM (inactive) | > 100 µM (inactive) | > 100 µM (inactive) | > 100 µM (inactive) | > 100 µM (inactive) | > 100 µM (inactive) | > 100 µM (inactive) | > 100 µM (inactive) | > 100 µM (inactive) | > 100 µM (inactive) | > 100 µM (inactive) |
| COc1cc2c(cc1O)C1C(O)C(O)C=C3CCN(C2)C31 (centres undefined) | 2.49 µM (inactive) | 0.158 µM (active) | 1.85 µM (inactive) | 1.83 µM (inactive) | 2.66 µM (inactive) | 2.05 µM (inactive) | 2.09 µM (inactive) | 1.83 µM (inactive) | 2.77 µM (inactive) | 3.84 µM (inactive) | 2.92 µM (inactive) | 2.65 µM (inactive) | 3.58 µM (inactive) | 1.79 µM (inactive) | – | 1.9 µM (inactive) |
| c1ccc2c(c1)[nH]c1c[nH]c3c4cccnc4nc-3c12 | 18.1 µM (inactive) | 17.1 µM (inactive) | 11.3 µM (inactive) | – | 17.5 µM (inactive) | – | 21.4 µM (inactive) | 21.5 µM (inactive) | 15.3 µM (inactive) | 19.9 µM (inactive) | 29.9 µM (inactive) | 12.7 µM (inactive) | 25.3 µM (inactive) | 15 µM (inactive) | 33.3 µM (inactive) | 14.5 µM (inactive) |
| CC(=O)O[C@H]1C(=O)[C@@]2(C)C([C@H](OC(=O)c3ccccc3)[C@]3(O)C[C@H](OC(=O)[C@H](O)[C@H](NC(=O)c4ccccc4)c4ccc(Cl)cc4)C(C)=C1C3(C)C)C1(OC(C)=O)CO[C@@H]1C[C@@H]2O (some centres undefined) | 0.000497 µM (active) | 0.000113 µM (active) | 0.261 µM (active) | 0.00594 µM (active) | < 0.0001 µM (active) | 0.000282 µM (active) | 0.000367 µM (active) | 0.000557 µM (active) | 0.733 µM (active) | 0.769 µM (active) | 0.00839 µM (active) | 0.0226 µM (active) | 0.000157 µM (active) | 0.00224 µM (active) | 0.0256 µM (active) | 0.151 µM (active) |
| CC1=C(C(=O)Nc2ccccc2)C(c2ccc(C(C)C)cc2)C(C(=O)Nc2ccccc2)=C(C)N1 | 17.2 µM (inactive) | 12.7 µM (inactive) | 17.3 µM (inactive) | 13.8 µM (inactive) | 9.59 µM (inactive) | 22.2 µM (inactive) | 12.8 µM (inactive) | 18.9 µM (inactive) | 12.5 µM (inactive) | 25.3 µM (inactive) | 25.3 µM (inactive) | 48.2 µM (inactive) | 6.71 µM (inactive) | 18.2 µM (inactive) | 24 µM (inactive) | 21.9 µM (inactive) |
| OCCNCCOc1ccc(/C(=C(/Cl)c2ccccc2)c2ccccc2)cc1 | 4.44 µM (inactive) | 4.99 µM (inactive) | – | 13.2 µM (inactive) | 0.729 µM (active) | 0.544 µM (active) | 13.6 µM (inactive) | 3.4 µM (inactive) | 9.48 µM (inactive) | 14.7 µM (inactive) | 16.7 µM (inactive) | 0.408 µM (active) | 4.42 µM (inactive) | 1.87 µM (inactive) | – | 12.4 µM (inactive) |
| COC(=O)C(=O)C(C(=O)C(=O)Nc1cc([N+](=O)[O-])ccc1C#N)c1nc2ccccc2nc1O (centres undefined) | > 100 µM (inactive) | > 100 µM (inactive) | > 100 µM (inactive) | – | > 100 µM (inactive) | > 100 µM (inactive) | > 100 µM (inactive) | > 100 µM (inactive) | 99.3 µM (inactive) | 35.5 µM (inactive) | > 100 µM (inactive) | > 100 µM (inactive) | – | > 100 µM (inactive) | – | > 100 µM (inactive) |
| C=C1C(=O)OC2/C=C(\C)C(OC(C)=O)C3OC3C(C)(O)CC(OC(=O)/C(C)=C/C)C12 (centres undefined) | < 0.01 µM (active) | 2.16 µM (inactive) | 13.5 µM (inactive) | 6.59 µM (inactive) | 2.51 µM (inactive) | 14.7 µM (inactive) | 3.67 µM (inactive) | 15.7 µM (inactive) | 11 µM (inactive) | 18.3 µM (inactive) | 19.1 µM (inactive) | 11.9 µM (inactive) | 4.91 µM (inactive) | 4.65 µM (inactive) | 15.8 µM (inactive) | 2.38 µM (inactive) |
